Patent publication US20240009174A1, “METHODS FOR DISRUPTING MITOCHONDRIAL UNFOLDED PROTEIN RESPONSE” (Health Research, Inc., priority 2020, published 2024)

Columns and labels:
[1] = tested on: LNCaP and PC-3 cells; assay: poly-Ub protein levels by western blotting; assay type: cell-based; conditions: 24 hours
Procedure: (§1) FIG. 6. Pharmacological inhibition of HSP60-ClpP interaction induces UPR^mt and PCa cell death. (A) Docking of DCEM1 into apical domain of HSP60. (B) LNCaP and PC-3 cells were treated with DCEM1 for 24 hours and HSP60-ClpP interaction was analyzed by co-immunoprecipitation assay. (C) LNCaP and PC-3 cells were treated with DCEM1 for 24 hours and mitoROS levels were analyzed by flow cytometry using mitoSOX dye. (D) LNCaP and PC-3 cells were treated with DCEM1 for 24 hours and poly-Ub protein levels were analyzed by western blotting. (E) LNCaP and PC-3 cells were treated with DCEM1 for 24 and 48 hours and apoptotic cell populations were analyzed by flow cytometry using Annexin V FITC/PI method as explained in materials and methods. In (E) top panel, the bars in each series from left to right are control, 5, 10, and 20, and in (E) bottom panel, the bars in each series from left to right are DMSO, 5, 10, and 20. (F) LNCaP and PC-3 cells were treated with DCEM1 for 24 and 48 hours and lysates were prepared and analyzed for DEVDase activity using specific peptide substrate. […] (G) LNCaP and PC-3 cells were pre-treated with SKQ1 followed by DCEM1 treatment and analyzed for cell viability by MTT assay. (H) LNCaP and PC-3 cells were treated with either DCEM1 or H2O2 (200 μM) for 24 hours and total DNA were isolated and analyzed for mtDNA damage as described in materials and methods. […]

[2] = tested on: c-Myc, EZH2, AR, PSA; assay: c-Myc, EZH2, AR and PSA protein expression in PCa cells; assay type: cell-based; conditions: LNCaP, 24 hours
Procedure: FIG. 8. Pharmacological inhibition of HSP60-ClpP inhibit oncogenic signaling and PCa tumor growth in vivo. (A) LNCaP, PC-3 and 22RV1 cells were treated with DCEM1 and analyzed for c-Myc and EZH2 protein expression after 24 hours of treatment. (B) LNCaP, 22RV1 and VCaP cells were treated with DCEM1 and analyzed for AR and PSA protein expression after 24 hours of treatment. (C-D) 22RV1 cells (1×10^6 cells) were mixed with matrigel (50:50 v/v) and injected into each flank of SCID mice and treated with DCEM1 (60 mg/kg bw) through IP route twice weekly and tumors were harvested, photographed (C) and weighed (D) at 30 days. (E) DEVDase activity were analyzed in 22RV1 xenograft tumor tissue following DCEM1 treatment and represented as fold change compared to control. (F) 22RV1 xenograft tissue were sectioned and expression of ki67, c-Myc and EZH2 proteins were analyzed by Immunohistochemistry as described in material and methods. […] (I) DEVDase activity were analyzed in PC-3 xenograft tumor tissue following DCEM1 treatment and represented as fold change compared to control. […] All animals were sacrificed at 16 weeks of age and prostate tissue and tumors were harvested, whole cell lysate were prepared and analyzed for HSP60 and ClpP expression (N); c-Myc and EZH2 expression (0) and SYP and CK 8/18 expression (P) by immunoblotting. […]

[3] = tested on: 22RV1 (AR positive) xenografts; assay: 22RV1 xenograft in SCID mice; assay type: in vivo; conditions: 60 mg/kg bw
Procedure: (§2) FIG. 8. Pharmacological inhibition of HSP60-ClpP inhibit oncogenic signaling and PCa tumor growth in vivo. (A) LNCaP, PC-3 and 22RV1 cells were treated with DCEM1 and analyzed for c-Myc and EZH2 protein expression after 24 hours of treatment. (B) LNCaP, 22RV1 and VCaP cells were treated with DCEM1 and analyzed for AR and PSA protein expression after 24 hours of treatment. (C-D) 22RV1 cells (1×10^6 cells) were mixed with matrigel (50:50 v/v) and injected into each flank of SCID mice and treated with DCEM1 (60 mg/kg bw) through IP route twice weekly and tumors were harvested, photographed (C) and weighed (D) at 30 days. (E) DEVDase activity were analyzed in 22RV1 xenograft tumor tissue following DCEM1 treatment and represented as fold change compared to control. (F) 22RV1 xenograft tissue were sectioned and expression of ki67, c-Myc and EZH2 proteins were analyzed by Immunohistochemistry as described in material and methods. (G-H) PC-3 cells (1×10^6 cells) were mixed with matrigel (50:50 v/v) and injected into each flank of SCID mice and treated with DCEM1 (60 mg/kg bw) through IP route twice weekly and tumors were harvested, photographed (G) and weighed (H) at 35 days. (I) DEVDase activity were analyzed in PC-3 xenograft tumor tissue following DCEM1 treatment and represented as fold change compared to control. (J) PC-3 xenograft tumor tissue were fixed and sections were used for in situ PLA to analyze HSP60-ClpP interaction in these tissue samples. […] All animals were sacrificed at 16 weeks of age and prostate tissue and tumors were harvested, whole cell lysate were prepared and analyzed for HSP60 and ClpP expression (N); c-Myc and EZH2 expression (0) and SYP and CK 8/18 expression (P) by immunoblotting. […]
(§3) Ablation of HSP60-ClpP interaction by DCEM1 downregulates c-Myc, EZH2 and AR as well as inhibits tumor growth in vivo. […] The effect of DCEM1 on 22RV1 (AR positive) and PC-3 (AR negative) xenografts growth in SCID mice was analyzed. […]

[4] = tested on: TKO prostate tumors; assay: Spontaneous prostate tumor in PTEN:Rb:p53 knockout (TKO) animals; assay type: in vivo, mice
Procedure: as §2, with “samples. (K) PBCre4:PTEN F/F: Rb F/F: p53 F/F (TKO) animals were treated with either vehicle (Normal saline: DMSO: Kolliphor HS15; 70:5:200 v/v) or DCEM1 (60 mg/kg bw in vehicle) twice weekly from 10 weeks of age. All animals were sacrificed at 16 weeks of age and whole genitourinary tract was harvested and weighed. (L) PBCre4:PTEN F/F: Rb F/F: p53 F/F (TKO) animals were treated with either vehicle (Normal saline:DMSO:Kolliphor HS15; 70:5:200 v/v) or DCEM1 (60 mg/kg bw in vehicle) twice weekly from 10 weeks of age. All animals were sacrificed at 16 weeks of age and imaged by MRI. (M) PBCre4:PTEN F/F: Rb F/F: p53 F/F (TKO) animals were treated with either vehicle (Normal saline:DMSO:Kolliphor HS15; 70:5:200 v/v) or DCEM1 (60 mg/kg bw in vehicle) twice weekly from 10 weeks of age.” for “samples.”
as §3

[5] = tested on: LNCaP and PC-3 cells; assay: mtDNA damage analysis; assay type: cell-based; conditions: 24 hours
Procedure: as §1

[6] = 60 mg/kg bw twice weekly, 10 to 16 weeks of age, immunoblotting

CCOc1cc(CNCc2nc3ccccc3[nH]2)ccc1OCc1cccs1 [DCEM1]
poly-Ub protein levels [1]: increased accumulation of poly-Ub proteins
PSA levels ([2]; 22RV1 and VCaP cells): Decrease in PSA levels
c-Myc, EZH2, and AR signaling in PCa cells ([2]; PC-3, 22RV1, VCaP cells): downregulates c-Myc, EZH2, and AR signaling
caspase-3 (DEVDase) activity in 22RV1 xenograft tumors ([3]; IP, twice weekly): induced
tumor volume and weight, 22RV1 xenografts ([3]; IP, twice weekly, 30 days): effectively inhibited
expression of Ki67, c-Myc, EZH2 and AR in 22RV1 xenograft ([3]; immunohistochemistry): downregulated expression of Ki67, c-Myc, EZH2 and AR
prostate tumor growth in TKO mice (GU weight, tumor volume by MRI) ([4]; 60 mg/kg bw twice weekly from 10 weeks to 16 weeks of age): significantly inhibited prostate tumor growth
HSP60 and ClpP expression in TKO prostatic tissue [4, 6]: downregulated HSP60 and ClpP expression
SYP and CK 8/18 expression in TKO tumor tissues [4, 6]: downregulated SYP and up regulated CK 8/18 expression
c-Myc and EZH2 in TKO prostatic tissue [4, 6]: depletion of c-Myc and EZH2
mtDNA damage [5]: Severe mtDNA damage
